Data reported in patent US9957264B2 (Merck Sharp & Dohme Corp., priority 2013, dated 2018).

Target: JAK1 (recombinant purified GST-tagged catalytic domain) (Homo sapiens (Human), UniProt P23458)
Test: Jak Biochemical HTRF Assay (JAK1)
Settings: [ATP] 31.8 μM
Description: Jak Biochemical HTRF Assay Protocol
The ability of compounds to inhibit the activity of JAK1, JAK2, JAK3, and Tyk2 was measured using a recombinant purified GST-tagged catalytic domain for each enzyme (Invitrogen JAK1 #M4290, JAK2 #M4290, JAK3 #M4290, Tyk2 #M4290) in an HTRF format biochemical assay. The reactions employed a common peptide substrate, LCB-[…]-NH2 (in-house). The basic assay protocol is as follows: First, 250 nL of diluted compounds in DMSO were dispensed into the wells of a dry 384-well Black plate (Greiner #781076) using a Labcyte Echo 555 acoustic dispenser. Subsequent reagent additions employed an Agilent Bravo. […] After equilibration, 2 μL of 10×ATP in 1× assay buffer was added to initiate the kinase reaction and the plates were shaken and then incubated at room temperature for 120 minutes. At the end of the incubation, 20 μL of 2× stop buffer (streptavidin-Dylight 650 (Thermo #84547B/100 mL), Eu-tagged pY20 antibody (Perkin Elmer #AD0067), EDTA, HEPES, and Triton) was added to quench the reaction. Plates were shaken and centrifuged and then incubated 60 minutes at room temperature and then read on a Perkin Elmer Envision (λex=337 nm, λem=665 and 615 nm, TRF delay time=20 μs). HTRF signal=10,000*665 nm reading/615 nm reading. After normalization to untreated controls, the percent inhibition of the HTRF signal at each compound concentration was calculated. The plot of percent inhibition versus the log of compound concentration was fit with a 4-parameter dose response equation to calculate IC50 values.
Final reaction conditions were:
Examples of the instant invention were evaluated in JAK1 and JAK2 in vitro binding assays as described above. The following table tabulates the JAK1 IC50 values and JAK2 IC50 values disclosed for the instant invention.

Chain of JAK1 (recombinant purified GST-tagged catalytic domain) (P23458 875-1153): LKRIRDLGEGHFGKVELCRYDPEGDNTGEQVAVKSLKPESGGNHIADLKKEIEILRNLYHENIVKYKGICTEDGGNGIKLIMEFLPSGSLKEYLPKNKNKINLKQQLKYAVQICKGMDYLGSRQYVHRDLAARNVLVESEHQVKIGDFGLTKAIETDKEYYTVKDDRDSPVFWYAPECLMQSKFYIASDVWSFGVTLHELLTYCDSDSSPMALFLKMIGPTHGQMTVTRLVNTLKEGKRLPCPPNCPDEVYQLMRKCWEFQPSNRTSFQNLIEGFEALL

SMILES	IC50
CC(C)(C)OC(=O)[C@@H]1CC[C@@](CC#N)(n2nc(Nc3ccc4c(c3)CN(C(C)(C)C)S4(=O)=O)c3c(=O)[nH]ccc32)CO1 [Example 5-41, (2S,5S)-tert-butyl 5-(3-((2-(tert-butyl)-1,1-dioxido-2,3-dihydrobenzo [d]isothiazol-5-yl)amino)-4-oxo-4,5-dihydro-1H-pyrazolo[4,3-c]pyridin-1-yl)-5-(cyanomethyl) tetrahydro-2H-pyran-2-carboxylate]	0.09 nM
CC(C)(C)OC(=O)[C@H]1CC[C@](CC#N)(n2nc(Nc3ccc4c(c3)CN(C(C)(C)C)S4(=O)=O)c3c(=O)[nH]ccc32)CO1 [Example 5-42, (2R,5R)-tert-butyl 5-(3-((2-(tert-butyl)-1,1-dioxido-2,3-dihydrobenzo[d]isothiazol-5-yl)amino)-4-oxo-4,5-dihydro-1H-pyrazolo[4,3-c]pyridin-1-yl)-5-(cyanomethyl)tetrahydro-2H-pyran-2-carboxylate]	1.6 nM
CN(C)S(=O)(=O)c1ccc(Nc2nn(C3(CC#N)CCCCC3)c3cc[nH]c(=O)c23)cc1 [Example 5-79, 4-(1-(1-(cyanomethyl)cyclohexyl)-4-oxo-4,5-dihydro-1H-pyrazolo[4,3-c]pyridin-3-ylamino)-N,N-dimethylbenzene-sulfonamide]	0.78 nM
CN(C)S(=O)(=O)c1ccc(Nc2nn([C@@]3(CC#N)CCCC[C@H]3F)c3cc[nH]c(=O)c23)cc1 [Example 5-84]	< 0.02 nM
CC(C)(C)OC(=O)[C@@H]1CC[C@@](CC#N)(n2nc(Nc3ccc(Cn4ccnn4)cc3)c3c(=O)[nH]ccc32)CO1 [Example 5-96, (2S,5S)-tert-butyl 5-(3-((4-((1H-1,2,3-triazol-1-yl)methyl)phenyl)amino)-4-oxo-4,5-dihydro-1H-pyrazolo[4,3-c]pyridin-1-yl)-5-(cyanomethyl) tetrahydro-2H-pyran-2-carboxylate]	0.07 nM
CC(C)(C)N1Cc2cc(Nc3nn(C4(CC#N)CCCC4)c4cc[nH]c(=O)c34)ccc2S1(=O)=O [Example 5-121, 2-(1-(3-((2-(tert-butyl)-1,1-dioxido-2,3-dihydrobenzo[d]isothiazol-5-yl)amino)-4-oxo-4,5-dihydro-1H-pyrazolo[4,3-c]pyridin-1-yl)cyclopentyl)acetonitrile]	0.04 nM
CC1(C)OC(=O)c2ccc(Nc3nn(C4(CC#N)CCCC4)c4cc[nH]c(=O)c34)cc21 [Example 5-126, (1-{3-[(3,3-dimethyl-1-oxo-1,3-dihydro-2-benzofuran-5-yl)amino]-4-oxo-4,5-dihydro-1H-pyrazolo[4,3-c]pyridin-1-yl}cyclopentyl)acetonitrile]	4.53 nM
CC(C)NS(=O)(=O)c1ccc(Nc2nn(C3(CC#N)CCCC3)c3cc[nH]c(=O)c23)cc1 [Example 5-130, 4-((1-(1-(cyanomethyl)cyclopentyl)-4-oxo-4,5-dihydro-1H-pyrazolo[4,3-c]pyridin-3-yl)amino)-N-isopropylbenzene-sulfonamide]	0.5 nM
CCOC(=O)C(C)(C)N(C)S(=O)(=O)c1ccc(Nc2nn(C3(CC#N)CCCC3)c3cc[nH]c(=O)c23)cc1 [Example 5-139, ethyl 2-(4-((1-(1-(cyanomethyl)cyclopentyl)-4-oxo-4,5-dihydro-1H-pyrazolo[4,3-c]pyridin-3-yl)amino)-N-methylphenylsulfonamido)-2-methylpropanoate]	0.76 nM
CC(C)(C)N1Cc2cc(Nc3nn([C@]4(CC#N)CCCOC4)c4cc[nH]c(=O)c34)ccc2S1(=O)=O [Example 5-178, [(3S)-3-{3-[(2-tert-butyl-1,1-dioxido-2,3-dihydro-1,2-benzisothiazol-5-yl)amino]-4-oxo-4,5-dihydro-1H-pyrazolo[4,3-c]pyridin-1-yl}tetrahydro-2H-pyran-3-yl] acetonitrile]	0.04 nM
CC(C)(C)OC(=O)[C@@H]1CC[C@@](CC#N)(n2nc(Nc3ccc4nc(N5CCOCC5)ccc4c3)c3c(=O)[nH]ccc32)CO1 [Example 5-227, (2S,5S)-tert-butyl 5-(cyanomethyl)-5-(3-((2-morpholinoquinolin-6-yl)amino)-4-oxo-4,5-dihydro-1H-pyrazolo[4,3-c]pyridin-1-yl)tetrahydro-2H-pyran-2-carboxylate]	0.15 nM
CN(C)S(=O)(=O)c1ccc(Nc2nn([C@@]3(CC#N)CCCC[C@H]3F)c3cc[nH]c(=O)c23)cc1 [Example 5-234, 4-({1-[(1R,2R)-1-(cyanomethyl)-2-fluorocyclohexyl]-4-oxo-4,5-dihydro-1H-pyrazolo [4,3-c]pyridin-3-yl}amino)-N,N-dimethyl-benzenesulfonamide]	0.63 nM
CC(C)NS(=O)(=O)c1ccc(Nc2nn(C3(CC#N)CCN(C(=O)OC(C)(C)C)CC3)c3cc[nH]c(=O)c23)cc1 [Example 5-288, tert-butyl 4-(cyanomethyl)-4-(3-((4-(N-isopropylsulfamoyl)phenyl)amino)-4-oxo-4,5-dihydro-1H-pyrazolo[4,3-c]pyridin-1-yl)piperidine-1-carboxylate]	0.15 nM
Cc1ccc(CN2CCC(CC#N)(n3nc(Nc4ccc(S(=O)(=O)N(C)C)cc4)c4c(=O)[nH]ccc43)CC2)cc1 [Example 8-2, 4-({1-[4-(cyanomethyl)-1-(4-methylbenzyl)piperidin-4-yl]-4-oxo-4,5-dihydro-1H-pyrazolo[4,3-c]pyridin-3-yl}amino)-N,N-dimethylbenzenesulfonamide]	0.44 nM
CN(C)S(=O)(=O)c1ccc(Nc2nn(C3(CC#N)CCN(Cc4ccc(C#N)cc4)CC3)c3cc[nH]c(=O)c23)cc1 [Example 8-5]	0.2 nM
CN(C)S(=O)(=O)c1ccc(Nc2nn(C3(CC#N)CCN(Cc4cccc5[nH]ccc45)CC3)c3cc[nH]c(=O)c23)cc1 [Example 8-16, 4-({1-[4-(cyanomethyl)-1-(1H-indol-4-ylmethyl)piperidin-4-yl]-4-oxo-4,5-dihydro-1H-pyrazolo[4,3-c]pyridin-3-yl}amino)-N,N-dimethylbenzenesulfonamide]	1.54 nM
CCC(=O)N1CCC(CC#N)(n2nc(Nc3ccc(S(=O)(=O)N(C)C)cc3)c3c(=O)[nH]ccc32)CC1 [Example 9-1, 4-({1-[4-(cyanomethyl)-1-propanoylpiperidin-4-yl]-4-oxo-4,5-dihydro-1H-pyrazolo[4,3-c]pyridin-3-yl}amino)-N,N-dimethylbenzenesulfonamide]	0.11 nM
CN(C)S(=O)(=O)c1ccc(Nc2nn(C3(CC#N)CCN(C(=O)Cc4ccc(C(F)(F)F)cc4)CC3)c3cc[nH]c(=O)c23)cc1 [Example 9-16, 4-({1-[4-(cyanomethyl)-1-{[4-(trifluoromethyl)phenyl]acetyl}piperidin-4-yl]-4-oxo-4,5-dihydro-1H-pyrazolo[4,3-c]pyridin-3-yl}amino)-N,N-dimethylbenzenesulfonamide]	1.05 nM
CN(C)S(=O)(=O)c1ccc(Nc2nn(C3(CC#N)CCN(C(=O)OC4CCOCC4)CC3)c3cc[nH]c(=O)c23)cc1 [Example 11-7, tetrahydro-2H-pyran-4-yl 4-(cyanomethyl)-4-(3-((4-(N,N-dimethylsulfamoyl)phenyl)amino)-4-oxo-4,5-dihydro-1H-pyrazolo[4,3-c]pyridin-1-yl)piperidine-1-carboxylate]	0.18 nM
CC(OC(=O)N1CCC(CC#N)(n2nc(Nc3ccc(S(=O)(=O)N(C)C)cc3)c3c(=O)[nH]ccc32)CC1)C(F)(F)F (stereo not drawn) [Example 11-8, 1,1,1-trifluoropropan-2-yl 4-(cyanomethyl)-4-(3-((4-(N,N-dimethylsulfamoyl)phenyl)amino)-4-oxo-4,5-dihydro-1H-pyrazolo[4,3-c]pyridin-1-yl)piperidine-1-carboxylate]	0.18 nM
CS(=O)(=O)c1ccc(Nc2nn(C3(CC#N)CCN(c4ccc(I)cn4)CC3)c3cc[nH]c(=O)c23)cc1 [Example 15-7, 2-(1-(5-iodopyridin-2-yl)-4-(3-((4-(methylsulfonyl)phenyl)amino)-4-oxo-4,5-dihydro-1H-pyrazolo[4,3-c]pyridin-1-yl)piperidin-4-yl)acetonitrile]	0.17 nM
CN(C)S(=O)(=O)c1ccc(Nc2nn([C@]3(CC#N)CC[C@@H](N4CC(F)C4)CC3)c3cc[nH]c(=O)c23)cc1 [Example 18-29, Trans 4-((1-(1-(cyanomethyl)-4-(3-fluoroazetidin-1-yl)cyclohexyl)-4-oxo-4,5-dihydro-1H-pyrazolo[4,3-c]pyridin-3-yl)amino)-N,N-dimethylbenzenesulfonamide]	0.1 nM
CN(C)S(=O)(=O)c1ccc(Nc2nn([C@]3(CC#N)CC[C@H](N4CC(F)C4)CC3)c3cc[nH]c(=O)c23)cc1 [Example 18-30, Cis 4-((1-(1-(cyanomethyl)-4-(3-fluoroazetidin-1-yl)cyclohexyl)-4-oxo-4,5-dihydro-1H-pyrazolo[4,3-c]pyridin-3-yl)amino)-N,N-dimethylbenzenesulfonamide]	2.62 nM
Cc1cc(Nc2nn([C@]3(CC#N)CC[C@@H](C(=O)OC(C)(C)C)OC3)c3cc[nH]c(=O)c23)ccc1C(=O)N1CCSCC1 [Example 20-6, (2S,5S)-tert-butyl 5-(cyanomethyl)-5-(3-((3-methyl-4-(thiomorpholine-4-carbonyl)phenyl)amino)-4-oxo-4,5-dihydro-1H-pyrazolo[4,3-c]pyridin-1-yl)tetrahydro-2H-pyran-2-carboxylate]	0.13 nM
